# Experimental data: patent US20070037752A1, “Novel alanyl-amino peptidase inhibitors for functionally influencing different cells and treating immunological, inflammatory, neuronal, and other diseases” (priority 2003, published 2007)
# Non-standard residues stand in square brackets, D forms with d. Residues, ends and D or L forms follow the SMILES beside them.
# Target: alanyl aminopeptidases (APN) (Homo sapiens, UniProt P15144)
# Assay: Inhibition of alanyl aminopeptidase enzymatic activity, fluorogenic substrate (Ala)2-rhodamine 110
# Format: biochemical
# Conditions: Table 1, unstarred values; read-out: IC50APN
# Experimental: The inhibition characteristics measured are referred to as IC-50 values or ID50 values (the latter marked with “*”) for said enzyme. The enzymatic activity was determined by means of the fluorogenic substrate/product (Ala)2-rhodamine 110.
# Chain of alanyl aminopeptidases (APN) (P15144 whole entry, species assumed): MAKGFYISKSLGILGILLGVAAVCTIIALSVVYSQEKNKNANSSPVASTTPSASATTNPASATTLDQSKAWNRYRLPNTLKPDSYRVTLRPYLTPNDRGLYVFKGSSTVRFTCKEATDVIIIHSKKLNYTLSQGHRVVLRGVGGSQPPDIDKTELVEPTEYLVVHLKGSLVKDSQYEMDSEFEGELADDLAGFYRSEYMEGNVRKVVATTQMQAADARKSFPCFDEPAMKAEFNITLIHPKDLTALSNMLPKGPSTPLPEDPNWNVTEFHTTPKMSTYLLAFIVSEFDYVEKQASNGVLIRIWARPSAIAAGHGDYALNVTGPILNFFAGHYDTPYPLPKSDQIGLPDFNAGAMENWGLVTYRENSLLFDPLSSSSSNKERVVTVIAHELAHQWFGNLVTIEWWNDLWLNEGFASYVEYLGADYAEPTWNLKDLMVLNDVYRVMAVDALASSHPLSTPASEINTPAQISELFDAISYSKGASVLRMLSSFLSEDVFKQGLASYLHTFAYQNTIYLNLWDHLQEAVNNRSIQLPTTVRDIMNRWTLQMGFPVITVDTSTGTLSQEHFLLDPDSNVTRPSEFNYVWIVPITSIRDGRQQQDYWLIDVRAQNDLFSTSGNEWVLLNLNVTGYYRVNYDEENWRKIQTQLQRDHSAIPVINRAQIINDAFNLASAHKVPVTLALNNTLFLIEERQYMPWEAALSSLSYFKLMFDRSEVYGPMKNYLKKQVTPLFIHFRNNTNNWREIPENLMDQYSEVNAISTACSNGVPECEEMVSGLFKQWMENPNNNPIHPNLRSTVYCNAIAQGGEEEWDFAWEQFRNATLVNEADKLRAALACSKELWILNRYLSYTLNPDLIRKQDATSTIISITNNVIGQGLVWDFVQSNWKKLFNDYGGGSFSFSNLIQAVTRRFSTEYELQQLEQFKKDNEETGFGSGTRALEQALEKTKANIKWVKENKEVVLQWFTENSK
row,Structure (SMILES),IC50
1,O=C(ON1C(=O)CCC1=O)C1CCC(=O)N1C(=O)OCc1ccccc1 (centres unmarked) [A1.007],8.4 µM
2,COc1ccc(C(OCCC(=O)NO)c2ccccc2)cc1 (centres unmarked) [A1.014],33 µM
3,O=C(COc1ccc(Br)cc1)NO [A1.004],6.4 µM

# Same assay, conditions: Table 2; read-out: IC50APN
row,Structure (SMILES),IC50
1,N/C(=N/OS(=O)(=O)c1ccc(C(F)(F)F)cc1)C1CSCCS1 (centres unmarked) [A2.006],13.4 µM
2,COC(=O)CCC/C=C1/SC[C@@H](NC(=O)c2ccccc2)/C1=N/O [A2.010],93.6 µM
3,COCc1nnn(-c2nonc2N)c1C(=O)N/N=C/c1ccco1 [A2.004],12.5 µM
4,Cc1ccc(/C=N/NC(=O)c2nnn(-c3nonc3N)c2C)o1 [A2.003],10.9 µM

# Same assay, conditions: Table 3, starred values = ID50; read-out: ID50 APN (values marked with *)
row,Structure (SMILES),IC50
1,CCc1ccc(N2C(=O)C3C(c4cccc(Cl)c4)OC4(C(=O)c5ccccc5C4=O)C3C2=O)cc1 (centres unmarked) [A3.350],336 µM
2,COC(=O)c1c(N)ncn1-c1ccccc1 [A3.323],126 µM
3,CC(C(=O)N/N=C/c1ccco1)n1nnc2ccccc21 (centres unmarked) [A3.327],146 µM
4,CN1C(=O)C(Cc2c[nH]c3ccccc23)NC1=S (centres unmarked) [A3.330],146 µM
5,O=C(N/N=C/c1ccco1)c1ccc([N+](=O)[O-])cc1 [A3.347],305 µM
6,CC1=C(C#N)C(=O)N(CCO)C(=O)/C1=C\c1ccc(-c2cc(Cl)ccc2Cl)o1 [A3.003],1.2 µM

# Same assay, conditions: Table 3, unstarred values; read-out: IC50APN
row,Structure (SMILES),IC50
1,COc1ccc(/C=N/NC(=O)C2=C(C)Nc3ccccc3S2)cc1Cn1nc(C)c(Br)c1C [A3.016],4.8 µM
2,O=C(Nc1cccc(/N=C/c2cc(I)cc(I)c2O)c1)c1ccco1 [A3.009],3 µM
3,O=C(COc1ccc(F)cc1)N/N=C/c1ccco1 [A3.060],13.6 µM
4,CCCN1C(=O)C(C#N)=C(C)/C(=C\c2ccc(-c3cccc(Cl)c3C)o2)C1=O [A3.112],20.8 µM
5,COc1ccc(OC)c(-c2cc(C(=O)N/N=C/c3ccco3)[nH]n2)c1 [A3.237],43.2 µM
6,CCCCOC(=O)c1ccc(NC(=O)/C=C\c2ccco2)cc1 [A3.032],8.3 µM
7,O=C(/C=C/c1ccco1)Nc1ccc(C(=O)O)cc1 [A3.033],8.4 µM
8,Cc1ccc(/C=N/NC(=O)COc2cccc(Cl)c2)o1 [A3.284],62.7 µM
9,Cc1ccc(/C=N/NC(=O)c2nnn(-c3nonc3N)c2-c2ccccc2)o1 [A3.025],6.9 µM
10,CCCOc1[nH]c(/N=C/c2ccccc2)c(C#N)c1C#N [A3.105],20 µM
11,CCOc1ccccc1NC(=O)c1c(NCc2cccc(OC)c2)sc2c1CCC2 [A3.279],58.4 µM
12,Cc1ccc(/C=N/NC(=O)c2ccccc2OCc2ccccc2)o1 [A3.090],18.4 µM
13,COc1ccc(C2NCCS2)cc1 (centres unmarked) [A3.035],9.5 µM
14,O=C(Nc1ccc(NCc2cc(Cc3ccccc3Cl)cc(Br)c2O)cc1)c1ccco1 [A3.017],4.9 µM
15,CCCCCCCC(=O)N/N=C/c1ccco1 [A3.264],50.3 µM
16,C/C(=N\NC(=O)c1ccco1)c1ccc(C)o1 [A3.331],152 µM
17,O=C(N/N=C/c1ccco1)c1cccc(NC(=O)c2ccccc2Cl)c1 [A3.110],20.6 µM
18,O=C(N/N=C/c1ccco1)c1ccc(O)cc1 [A3.082],16.8 µM
19,O=[N+]([O-])c1ncn(CCBr)n1 [A3.235],41.1 µM
20,Cc1ccc(/C=N/NC(=O)c2ccc(NC(=O)c3ccccc3C)cc2)o1 [A3.136],22.8 µM
21,O=C(N/N=C/c1ccco1)c1ccc(NC(=O)c2ccccc2Cl)cc1 [A3.199],32.5 µM
22,O=C(CCC(=O)Nc1ccccc1)N/N=C/c1ccco1 [A3.234],41.1 µM
23,Cc1ccc(C(=O)N/C(=C\c2ccco2)C(=O)N2CC3CC(C2)c2cccc(=O)n2C3)cc1C (centres unmarked) [A3.048],11.8 µM
24,Cc1cc(I)ccc1CC(=O)CCC(=O)N/N=C/c1ccco1 [A3.095],9.5 µM
25,Cc1ccc(/C=N\NC(=O)Cc2cccs2)o1 [A3.265],51.1 µM
26,CSCCC(Nc1ncnc2c1oc1ccccc12)C(=O)O (centres unmarked) [A3.256],48.4 µM
27,O=C(N/N=C/c1ccco1)c1ccc(O)cc1O [A3.229],38.3 µM
28,N/C(=N\N=C\c1ccco1)c1nonc1N [A3.068],14.6 µM
29,Cc1ccc(/C=N/NC(=O)c2nnn(-c3nonc3N)c2C)o1 [A3.041],10.9 µM

# Same assay, conditions: Table 4, starred values = ID50; read-out: ID50 APN (values marked with *)
row,Structure (SMILES),IC50
1,O=C(N/N=C\C=C\c1ccco1)c1cc(-c2cccs2)n[nH]1 [A4.175],132 µM
2,O=C(CNC(=O)c1cccc(F)c1)N/N=C/c1ccco1 [A4.180],155 µM
3,COc1ccc(C(=O)NCC(=O)N/N=C/c2ccco2)cc1OC [A4.156],64.9 µM
4,COc1cc(C(=O)NCC(=O)N/N=C\c2ccc(C)o2)cc(OC)c1OC [A4.182],161 µM

# Same assay, conditions: Table 4, unstarred values; read-out: IC50APN
row,Structure (SMILES),IC50
1,CC(/C=N/NC(=O)c1ccco1)=C\c1ccco1 [A4.088],27.5 µM
2,CSc1nnc2n(/N=C/c3ccco3)cnn12 [A4.112],34.7 µM
3,COc1cccc(/C=N/NC(=O)c2ccn(C)n2)c1O [A4.177],142 µM
4,O=C(CNS(=O)(=O)c1ccc2c(c1)OCCO2)N/N=C/c1ccco1 [A4.148],55.6 µM
5,Cc1cccc(NCC(=O)N/N=C/c2cc(Br)c(O)c(O)c2Br)c1 [A4.012],7.8 µM
6,O=C(COc1ccc2ccccc2c1)N/N=C/c1c(Br)cc(Br)c(O)c1Br [A4.059],21 µM
7,COC(=O)N/N=C(C)\C=C\c1ccco1 [A4.025],13.5 µM
8,CCN(CC)c1ccc(/C=C(\NC(=O)c2ccccc2)C(=O)N/N=C/c2ccc(O)c([N+](=O)[O-])c2)cc1 [A4.011],7.6 µM
9,O=C(CC(=O)N/N=C/c1ccco1)N/N=C/c1ccco1 [A4.102],32.4 µM
10,O=C(Nc1ccccc1C(=O)N/N=C/c1ccco1)c1ccccc1Cl [A4.109],34.7 µM
11,O=C(N/N=C/c1ccco1)c1cccc(NC(=O)c2ccc(F)cc2)c1 [A4.080],25.9 µM
12,COc1cc(Br)ccc1OCC(=O)N/N=C/c1cc(O)c(O)c(Br)c1Br [A4.003],5 µM
13,Cc1nn(-c2ccccc2)c(C)c1-c1cc(C(=O)N/N=C/c2ccco2)[nH]n1 [A4.087],27.4 µM
14,CCOc1cc(/C=N/NC(=O)CNC(=O)c2cccc(Cl)c2)ccc1OC(=O)c1cccs1 [A4.020],12.2 µM
15,O=C(N/N=C/c1ccco1)c1cc(-c2ccco2)n[nH]1 [A4.058],20.9 µM
16,CC1SC(N/N=C/c2ccco2)=NC1=O (centres unmarked) [A4.089],27.7 µM

# Same assay, conditions: Table 5, unstarred values; read-out: IC50APN
row,Structure (SMILES),IC50
1,O=C(Nc1cccc(/N=C/c2cc(/N=N\c3ccccc3Cl)ccc2O)c1)c1ccco1 [A5.001],3.6 µM
2,Oc1ccc(Cl)cc1/N=C/c1ccc(-c2ccc(F)cc2)o1 [A5.005],77.3 µM
3,O=C(Nc1cccc(/N=C/c2cc(Br)cc(Br)c2O)c1)c1ccco1 [A5.003],8.2 µM

# Same assay, conditions: Table 6; read-out: IC50APN
row,Structure (SMILES),IC50
1,Cc1ccc(/C=C/C(=O)Nc2ccc(S(=O)(=O)N3CCCC3)cc2)o1 [A6.013],24.8 µM

# Same assay, conditions: Table 8, unstarred values; read-out: IC50APN
row,Structure (SMILES),IC50
1,Cn1c(=O)[nH]c2nnc(-c3cccs3)nc2c1=O [A8.023],22.6 µM

# Same assay, conditions: Table 9, starred values = ID50; read-out: ID50 APN (values marked with *)
row,Structure (SMILES),IC50
1,CCCCOC(=O)c1cccc(-c2ccc(/C=C3\C(=O)N(CCO)C(=O)C(C#N)=C3C)o2)c1 [A9.021],10.2 µM
2,Cc1cccc[n+]1OC(=O)N1CCCCC1 [A9.118],96.7 µM
3,O=C1c2ccccc2-c2c1[n+]([O-])c1c([n+]2[O-])CCCC1 [A9.003],2 µM

# Same assay, conditions: Table 9, unstarred values; read-out: IC50APN
row,Structure (SMILES),IC50
1,Nc1nc2nc(-c3ccco3)cc(C(F)(F)F)n2n1 [A9.084],32.1 µM
2,NC(=O)C1CCN(C(=O)/C(=C/c2ccco2)NC(=O)c2ccccc2)CC1 [A9.081],30.5 µM
3,CN1C/C(=C/c2ccco2)C(=O)/C(=C/c2ccco2)C1 [A9.046],19.2 µM
4,CC1CCCCN1S(=O)(=O)c1ccc(NC(=O)/C=C/c2ccco2)cc1 (centres unmarked) [A9.047],19.9 µM
5,CCCOC(=O)c1cc(-c2ccc(/C=C3\C(=O)N(CCO)C(=O)C(C#N)=C3C)o2)ccc1Cl [A9.101],54 µM
6,CC1CCN(S(=O)(=O)c2ccc3c(c2)C(Cl)(Cl)C(=O)N3)CC1 [A9.092],37.2 µM
7,CCOc1cccc(/C=N/NC(=O)C2=C(C)Nc3ccccc3S2)c1O [A9.086],33.2 µM
8,O=C(N/C(=C\c1ccco1)C(=O)N1CCC(O)CC1)c1ccccc1 [A9.051],21.1 µM
9,CCOC(=O)C(C#N)c1c([N+](=O)[O-])c(=O)n(-c2ccccc2)c2ccccc12 (centres unmarked) [A9.078],30 µM
10,Cc1ccc(C(=O)N/C(=C\c2ccco2)C(=O)N2CC3CC(C2)c2cccc(=O)n2C3)cc1C (centres unmarked) [A9.026],11.8 µM
11,COc1ccc(C[C@@H](N)C(=O)N[C@H]2[C@H](O)[C@H](n3cnc4c(N(C)C)ncnc43)O[C@@H]2CO)cc1 [A9.050],20.9 µM

# Same assay, conditions: Table 10; read-out: IC50APN
row,Structure (SMILES),IC50
1,COc1ccc(Cl)cc1C(=O)N/C(=C/c1ccco1)C(=O)N1CC2CC(C1)c1cccc(=O)n1C2 (centres unmarked) [A10.003],8.1 µM

# Same assay, conditions: Table 11; read-out: IC50APN
row,Structure (SMILES),IC50
1,CC(C)C/C=N/NC(=O)c1ccc([N+](=O)[O-])cc1Cl [A11.010],15.6 µM

# Same assay, conditions: Table 12; read-out: IC50APN
row,Structure (SMILES),IC50
1,N#C/C(=C\c1ccc(N2Cc3ccccc3C2)cc1)C(=O)NCC1CCCO1 (centres unmarked) [A12.047],28.1 µM
2,CCOC(=O)C(NC(=O)c1ccccc1)(Nc1ccc(OC)cc1OC)C(F)(F)F (centres unmarked) [A12.036],19 µM
3,Cc1ccccc1NC(=O)C1C(c2cccs2)C(C#N)=C(SCC(=O)Nc2ccc(Br)cc2)NC1(C)O (centres unmarked) [A12.054],33.9 µM
4,O=C(ON1C(=O)CCC1=O)C1CCC(=O)N1C(=O)OCc1ccccc1 (centres unmarked) [A12.015],7.5 µM
5,COc1ccc(Cl)cc1NC(O)CCN1C(=O)C2C3C=CC(C3)C2C1O (centres unmarked) [A12.026],13.4 µM
6,NCCCC[C@@H](N)C(=O)N[C@H](Cc1ccccc1)C(=O)N[C@H](Cc1ccc(O)cc1)C(=O)O [A12.011] (H-[dK]-[dF]-[dY]-OH),7.3 µM
7,O=C1Nc2cc(C(=O)N3CCN(c4ccccc4)CC3)ccc2NC1CSCc1ccccc1F (centres unmarked) [A12.065],61.5 µM

# Same assay, conditions: Table 13; read-out: IC50APN
row,Structure (SMILES),IC50
1,CCCN1C(=O)C(C#N)=C(C)/C(=C\c2ccc(-c3cccc(Cl)c3C)o2)C1=O [A13.011],20.8 µM
2,CCCOc1[nH]c(/N=C/c2ccccc2)c(C#N)c1C#N [A13.010],20 µM
